Data from ChEMBL document CHEMBL5543131, “Discovery of Highly Potent Solute Carrier 13 Member 5 (SLC13A5) Inhibitors for the Treatment of Hyperlipidemia” (J Med Chem, 2024).
Active and inactive are the calls of the source. No cut-off for these calls is given here.

Columns and labels:
Mus musculus [1] = test: Lipid lowering activity in PCN-induced hyperlipidemic male C57BL/6J mouse model assessed as decrease in FASN mRNA expression level preadministered intragastrically with compound for 15 to 30 mins followed by PCN administration and measured after 7 days by RT-qPCR analysis; type: functional, organism-based; conditions: dose 10-30 mg/kg, route ig, time 15-10110 min
AML12 [2] = test: Effect on SCL13A5 mRNA expression in PCN-induced mouse AML12 cells at 3 to 30 uM preincubated with compound for 30 mins followed by PCN addition and measured after 24 hrs by RT-qPCR analysis; type: functional, cell-based; conditions: dose 3-30 µM, time 24.5 hrs
Mus musculus [3] = test: Lipid lowering activity in starvation-induced hyperlipidemic male C57BL/6J mouse model assessed as downregulation of FASN gene expression level starved for 48 hrs followed by oral administration of compound and measured after 2 hrs by RT-qPCR analysis; type: functional, organism-based; conditions: dose 10-30 mg/kg
HepG2 [4] = test: Lipid lowering effect on PCN-induced lipid accumulation in human HepG2 cells assessed as decrease in ACC1 mRNA expression level at 3 to 30 uM by RT-qPCR analysis; type: functional, cell-based; conditions: dose 3-30 µM
AML12 [5] = test: Lipid lowering effect on PCN-induced lipid accumulation in mouse AML12 cells assessed as decrease in FASN mRNA expression level at 3 to 30 uM preincubated with compound for 30 mins followed by PCN addition and measured after 24 hrs by RT-qPCR analysis; type: functional, cell-based; conditions: dose 3-30 µM, time 24.5 hrs
Mus musculus [6] = test: Lipid lowering activity in starvation-induced hyperlipidemic male C57BL/6J mouse model assessed as downregulation of ACLY gene expression level starved for 48 hrs followed by oral administration of compound and measured after 2 hrs by RT-qPCR analysis; type: functional, organism-based; conditions: dose 10-30 mg/kg
Mus musculus [7] = test: Lipid lowering activity in PCN-induced hyperlipidemic male C57BL/6J mouse model assessed as decrease in liver triglyceride level at 10 to 30 mg/kg, IG preadministered with compound for 15 to 30 mins followed by PCN administration and measured after 7 days; type: functional, organism-based; conditions: dose 10-30 mg/kg, time 15-10110 min
Hepatocyte [8] = test: Lipid lowering effect on PCN-induced lipid accumulation in mouse Primary hepatocyte assessed as decrease in intracellular total cholesterol level; type: functional, cell-based; conditions: dose 3-30 µM
HepG2 [9] = test: Lipid lowering effect on PCN-induced lipid accumulation in human HepG2 cells assessed as decrease in HMGCR mRNA expression level at 3 to 30 uM by RT-qPCR analysis; type: functional, cell-based; conditions: dose 3-30 µM
Hepatocyte [10] = test: Lipid lowering effect on PCN-induced lipid accumulation in mouse Primary hepatocyte assessed as decrease in ACLY mRNA expression level at 3 to 30 uM by RT-qPCR analysis; type: functional, cell-based; conditions: dose 3-30 µM
HepG2 [11] = test: Lipid lowering effect on PCN-induced lipid accumulation in human HepG2 cells assessed as decrease in intracellular triglyceride level; type: functional, cell-based; conditions: dose 3-30 µM
Mus musculus [12] = test: Lipid lowering activity in starvation-induced hyperlipidemic male C57BL/6J mouse model assessed as decrease in NEFA level in liver at 10 to 30 mg/kg, ip starved for 48 hrs followed by compound administration and measured after 2 hrs; type: functional, organism-based; conditions: dose 10-30 mg/kg
Mus musculus [13] = test: Lipid lowering activity in starvation-induced hyperlipidemic male C57BL/6J mouse model assessed as downregulation of ACC1 gene expression level starved for 48 hrs followed by oral administration of compound and measured after 2 hrs by RT-qPCR analysis; type: functional, organism-based; conditions: dose 10-30 mg/kg
Mus musculus [14] = test: Lipid lowering activity in starvation-induced hyperlipidemic male C57BL/6J mouse model assessed as decrease in triglyceride level in plasma at 10 to 30 mg/kg, ip starved for 48 hrs followed by compound administration and measured after 2 hrs; type: functional, organism-based; conditions: dose 10-30 mg/kg
[15] = molecular target: T1, Solute carrier family 13 member 2 (Homo sapiens) (UniProt Q13183); test: Inhibition of NaDC1 (unknown origin) citrate transport activity
T1 sequence (whole entry): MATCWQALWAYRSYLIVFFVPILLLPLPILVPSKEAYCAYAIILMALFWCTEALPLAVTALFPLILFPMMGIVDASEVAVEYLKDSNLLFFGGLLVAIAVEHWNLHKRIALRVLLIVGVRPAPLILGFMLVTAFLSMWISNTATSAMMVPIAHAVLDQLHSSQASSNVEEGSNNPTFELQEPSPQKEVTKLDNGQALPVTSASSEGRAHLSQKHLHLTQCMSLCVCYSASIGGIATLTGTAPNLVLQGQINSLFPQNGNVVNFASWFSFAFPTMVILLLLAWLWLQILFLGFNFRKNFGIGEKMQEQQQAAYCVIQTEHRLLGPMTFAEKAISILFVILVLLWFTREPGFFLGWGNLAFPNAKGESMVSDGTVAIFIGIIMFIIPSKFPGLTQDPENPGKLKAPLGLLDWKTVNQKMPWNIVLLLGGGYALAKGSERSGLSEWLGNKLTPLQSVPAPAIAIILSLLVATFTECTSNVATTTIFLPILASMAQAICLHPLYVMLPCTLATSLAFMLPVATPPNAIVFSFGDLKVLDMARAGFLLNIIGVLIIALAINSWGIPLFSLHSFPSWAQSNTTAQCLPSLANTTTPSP

HepG2 [16] = test: Lipid lowering effect on oleic and palmitic acid induced lipid accumulation in human HepG2 cells assessed as decrease in intracellular triglyceride level; type: functional, cell-based; conditions: dose 3-30 µM
[17] = molecular target: T2, Na(+)/dicarboxylate cotransporter 3 (Homo sapiens) (UniProt Q8WWT9); test: Inhibition of NaDC3 (unknown origin) citrate transport activity
T2 sequence (whole entry): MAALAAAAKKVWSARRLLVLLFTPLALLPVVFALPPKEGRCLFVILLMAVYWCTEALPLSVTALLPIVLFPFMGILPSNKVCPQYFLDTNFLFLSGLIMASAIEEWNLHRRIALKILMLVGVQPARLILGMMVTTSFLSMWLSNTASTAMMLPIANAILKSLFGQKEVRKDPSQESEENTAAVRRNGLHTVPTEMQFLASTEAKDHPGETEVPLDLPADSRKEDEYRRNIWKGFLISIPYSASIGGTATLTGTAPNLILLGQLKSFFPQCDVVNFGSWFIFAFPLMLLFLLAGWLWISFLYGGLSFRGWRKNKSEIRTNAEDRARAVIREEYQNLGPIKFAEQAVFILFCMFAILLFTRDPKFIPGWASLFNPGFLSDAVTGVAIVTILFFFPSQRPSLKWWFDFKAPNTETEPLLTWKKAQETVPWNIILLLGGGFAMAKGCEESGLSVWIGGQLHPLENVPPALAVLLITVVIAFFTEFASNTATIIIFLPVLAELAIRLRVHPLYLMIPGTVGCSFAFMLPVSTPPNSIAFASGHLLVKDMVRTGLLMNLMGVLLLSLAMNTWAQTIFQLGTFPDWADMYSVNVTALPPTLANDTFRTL

HepG2 [18] = test: Lipid lowering effect on PCN-induced lipid accumulation in human HepG2 cells assessed as decrease in intracellular total cholesterol level; type: functional, cell-based; conditions: dose 3-30 µM
[19] = molecular target: Na(+)/citrate cotransporter (Homo sapiens) (UniProt Q86YT5); test: Potency index, ratio of citrate Km to test compound Km for binding affinity to SLC13A5 (unknown origin)
Sequence of Na(+)/citrate cotransporter (Homo sapiens) (Q86YT5 whole entry, looked up): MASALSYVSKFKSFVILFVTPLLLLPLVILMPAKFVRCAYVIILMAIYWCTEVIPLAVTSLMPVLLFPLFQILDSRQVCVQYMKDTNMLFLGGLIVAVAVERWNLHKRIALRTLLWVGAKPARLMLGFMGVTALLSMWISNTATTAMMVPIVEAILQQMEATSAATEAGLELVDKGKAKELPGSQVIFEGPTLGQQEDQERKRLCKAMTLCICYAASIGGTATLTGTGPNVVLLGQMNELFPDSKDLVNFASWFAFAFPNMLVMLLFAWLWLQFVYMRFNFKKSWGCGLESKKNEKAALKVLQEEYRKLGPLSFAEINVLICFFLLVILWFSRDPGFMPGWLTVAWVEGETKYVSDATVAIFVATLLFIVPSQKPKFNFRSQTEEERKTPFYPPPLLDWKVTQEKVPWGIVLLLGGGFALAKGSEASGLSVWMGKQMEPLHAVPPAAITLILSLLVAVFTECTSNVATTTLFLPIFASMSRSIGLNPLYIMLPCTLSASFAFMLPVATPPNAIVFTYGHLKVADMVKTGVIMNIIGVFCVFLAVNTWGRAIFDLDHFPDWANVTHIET

Mus musculus [20] = test: Lipid lowering activity in PCN-induced hyperlipidemic male C57BL/6J mouse model assessed as decrease in lipid accumulation in liver at 30 mg/kg, IG preadministered with compound for 15 to 30 mins followed by PCN administration and measured after 7 days by H&E staining based analysis; type: functional, organism-based; conditions: time 15-10110 min

O=C(O)CC(O)(CCc1ccc(-c2ccccc2)cc1)C(=O)O (stereo not given)
Activity (Mus musculus [1]): Dose-Dependent Effect | Activity (AML12 [2]): inactive | Activity (Mus musculus [3]): Dose-Dependent Effect | Activity (HepG2 [4]): Active | Activity (AML12 [5]): Active | Activity (Mus musculus [6]): Dose-Dependent Effect | Activity (Mus musculus [7]): Active | Activity (Hepatocyte [8]): Dose-Dependent Effect | Activity (HepG2 [9]): Active | Activity (Hepatocyte [10]): Active | Activity (HepG2 [11]): Dose-Dependent Effect | Activity (Mus musculus [12]): Active | Activity (Mus musculus [13]): Dose-Dependent Effect | Activity (Mus musculus [14]): Active | inhibition [15]: inactive | Activity (HepG2 [16]): Dose-Dependent Effect | inhibition [17]: inactive | Activity (HepG2 [18]): Dose-Dependent Effect | Ratio [19]: 2 | Activity (Mus musculus [20]): Active
